Measurements: ChEMBL document CHEMBL1201862, “PubChem BioAssay data set” (2004)
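All cell lines were grown in 96-well plates and treated with compound for 48 hours. Here, GI50 denotes the concentration required for 50% inhibition of growth.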 The source made the active and inactive calls. No stated cut-off is given here; in the data, active = GI50 up to about 1.1 µM and inactive = higher.

What was measured:
Test in all cases: inhibition of tumour cell growth, NCI panel, 48 h
SK-MEL-2 = system: SK-MEL-2
SN12C = system: SN12C
OVCAR-8 = system: OVCAR-8
TK-10 = system: TK-10
NCI-H460 = system: NCI-H460
SNB-75 = system: SNB-75
KM12 = system: KM12
SW-620 = system: SW-620
UACC-62 = system: UACC-62
A549 = system: A549
SNB-19 = system: SNB-19
SF-295 = system: SF-295
SK-MEL-28 = system: SK-MEL-28
ACHN = system: ACHN
RPMI-8226 = system: RPMI-8226
UO-31 = system: UO-31

Measured: GI50

Nc1nc(SCCC/C=C/I)nc2c1ncn2C1OC(COP(=O)(O)O)C(O)C1O (stereo not drawn)
inactive: SK-MEL-2 > 100 µM | SN12C > 100 µM | OVCAR-8 > 100 µM | TK-10 > 100 µM | NCI-H460 > 100 µM | SNB-75 > 100 µM | KM12 > 100 µM | SW-620 > 100 µM | UACC-62 > 100 µM | A549 > 100 µM | SNB-19 > 100 µM | SF-295 > 100 µM | SK-MEL-28 > 100 µM | ACHN > 100 µM

Cn1ccnc1C(c1nccn1C)C(C)(C)[N+](=O)[O-]
inactive: SK-MEL-2 > 100 µM | SN12C > 100 µM | OVCAR-8 > 100 µM | RPMI-8226 > 100 µM | TK-10 > 100 µM | NCI-H460 > 100 µM | SNB-75 > 100 µM | KM12 > 100 µM | SW-620 > 100 µM | UACC-62 12.4 µM | A549 > 100 µM | SF-295 > 100 µM | SK-MEL-28 > 100 µM | ACHN > 100 µM

C[s+]1c2ccccc2c2ccccc21
inactive: SK-MEL-2 > 100 µM | SN12C > 100 µM | OVCAR-8 > 100 µM | RPMI-8226 > 100 µM | TK-10 > 100 µM | NCI-H460 > 100 µM | KM12 > 100 µM | SW-620 > 100 µM | UACC-62 > 100 µM | A549 > 100 µM | UO-31 34.2 µM | SNB-19 74.1 µM | SF-295 > 100 µM | SK-MEL-28 > 100 µM | ACHN > 100 µM

O=C1c2ccccc2C(=O)N1CC#CCO
inactive: SK-MEL-2 > 100 µM | SN12C > 100 µM | OVCAR-8 > 100 µM | TK-10 > 100 µM | NCI-H460 > 100 µM | KM12 > 100 µM | SW-620 > 100 µM | UACC-62 > 100 µM | A549 > 100 µM | UO-31 > 100 µM | SNB-19 > 100 µM | SF-295 > 100 µM | SK-MEL-28 > 100 µM | ACHN > 100 µM

COc1cc(OC)c(Oc2cccc(OC)c2OC)c(OC)c1
inactive: SK-MEL-2 > 100 µM | SN12C > 100 µM | OVCAR-8 > 100 µM | TK-10 > 100 µM | NCI-H460 > 100 µM | SNB-75 > 100 µM | KM12 > 100 µM | SW-620 > 100 µM | UACC-62 > 100 µM | A549 > 100 µM | UO-31 > 100 µM | SNB-19 32.1 µM | SF-295 > 100 µM | SK-MEL-28 > 100 µM | ACHN > 100 µM

CCOC(=O)COc1ccc(OC)c2c1C(=O)CCC2
inactive: SN12C > 100 µM | OVCAR-8 > 100 µM | RPMI-8226 > 100 µM | TK-10 > 100 µM | NCI-H460 > 100 µM | SNB-75 > 100 µM | SW-620 > 100 µM | UACC-62 > 100 µM | A549 > 100 µM | SNB-19 20 µM | SF-295 > 100 µM | SK-MEL-28 > 100 µM | ACHN > 100 µM

CCN(CC)CCC(=O)NC1c2ccccc2Oc2c(C)cccc21 (stereo not drawn)
inactive: SN12C > 100 µM | OVCAR-8 > 100 µM | RPMI-8226 > 100 µM | TK-10 > 100 µM | NCI-H460 > 100 µM | SNB-75 > 100 µM | SW-620 > 100 µM | UACC-62 > 100 µM | A549 > 100 µM | UO-31 63.7 µM | SNB-19 > 100 µM | SK-MEL-28 > 100 µM | ACHN > 100 µM

COc1ccc2c(c1)[n+]([O-])c(C(=O)C/C(=N/NC(=O)c1ccccc1O)C(=O)Nc1ccc(Cl)c(C(F)(F)F)c1)c(C)[n+]2[O-]
inactive: SK-MEL-2 > 100 µM | SN12C 47.2 µM | OVCAR-8 43.8 µM | TK-10 50.5 µM | NCI-H460 46.5 µM | SNB-75 66.5 µM | KM12 89.1 µM | SW-620 62.1 µM | UACC-62 > 100 µM | A549 > 100 µM | UO-31 20.7 µM | SNB-19 > 100 µM | SF-295 72.3 µM | SK-MEL-28 > 100 µM | ACHN 68.9 µM
